Assay results: patent US20240041042A1, “1-(PYRIDYL)-5-AZINYLPYRAZOLE DERIVATIVES, AND THEIR USE FOR CONTROL OF UNDESIRED PLANT GROWTH” (Bayer Aktiengesellschaft, priority 2020, published 2024)

Assays:
Assay type in all cases: in vivo
[1] = system: Matricaria inodora (MATIN); assay: Pre-emergence herbicidal action against MATIN
How it was run: (§1)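 Dosages of 320 g/ha or less; pre-emergence; WP or EC in aqueous spray, 0.5% additive, 600 l/ha; greenhouse; visual % effect after ~3 wk relative to control pots.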

[2] = system: Abutilon theophrasti (ABUTH); assay: Post-emergence herbicidal action against ABUTH; details: visual rating about 3 weeks after treatment vs untreated controls (100% = plants have died, 0% = like control plants)
How it was run: (§2)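 Post-emergence greenhouse spray, one-leaf stage, 600 l/ha water plus 0.5% additive; WP or EC formulations; application rates 320 g/ha or lower. Visual % damage vs untreated controls at ~3 weeks.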

Lolium rigidum (LOLRI) = assay: Pre-emergence herbicidal action against LOLRI
How it was run: as §1

[3] = system: Verconica persica (VERPE); assay: Post-emergence herbicidal action against VERPE
How it was run: as §2

Setaria viridis (SETVI) [4] = assay: Pre-emergence herbicidal action against SETVI
How it was run: as §1

[5] = system: Pharbitis purpurea (PHBPU); assay: Post-emergence herbicidal action against PHBPU
How it was run: as §2

[6] = system: Pharbitis purpurea (PHBPU); assay: Pre-emergence herbicidal action against PHBPU
How it was run: as §1

Setaria viridis (SETVI) [7] = assay: Post-emergence herbicidal action against SETVI
How it was run: as §2

Viola tricolor (VIOTR) = assay: Post-emergence herbicidal action against VIOTR
How it was run: as §2

[8] = system: Polygonum convolvulus (POLCO); assay: Pre-emergence herbicidal action against POLCO
How it was run: as §1

SMILES	Pre-emergence action against MATIN in % ([1]; dosage 320 g/ha)	Post-emergence action against ABUTH in % ([2]; 320 g/ha)	Pre-emergence action against LOLRI in % (Lolium rigidum (LOLRI); dosage 80 g/ha)	Pre-emergence action against LOLRI in % (Lolium rigidum (LOLRI); dosage 320 g/ha)	Post-emergence action against VERPE in % ([3]; 320 g/ha, VERPE)	Pre-emergence action against SETVI in % (Setaria viridis (SETVI) [4]; dosage 80 g/ha)	Pre-emergence action against SETVI in % (Setaria viridis (SETVI) [4]; dosage 320 g/ha)	Post-emergence action against PHBPU in % ([5]; dosage 80 g/ha)	Post-emergence action against PHBPU in % ([5]; dosage 320 g/ha)	Pre-emergence action against PHBPU in % ([6]; dosage 320 g/ha)	Post-emergence action against SETVI in % (Setaria viridis (SETVI) [7]; dosage 80 g/ha)	Post-emergence action against SETVI in % (Setaria viridis (SETVI) [7]; dosage 320 g/ha)	Post-emergence action against VIOTR in % (Viola tricolor (VIOTR); 80 g/ha)	Post-emergence action against VIOTR in % (Viola tricolor (VIOTR); 320 g/ha)	Pre-emergence action against POLCO in % ([8]; dosage 80 g/ha)	Pre-emergence action against POLCO in % ([8]; dosage 320 g/ha)	Pre-emergence action against MATIN in % ([1]; dosage 80 g/ha)	Post-emergence action against ABUTH in % ([2]; 80 g/ha)	Post-emergence action against VERPE in % ([3]; dosage 80 g/ha)	Pre-emergence action against PHBPU in % ([6]; dosage 80 g/ha)
COC(=O)C(C)COC(=O)C(C)Oc1nn(-c2ccccn2)c(-c2ccc(F)nc2)c1Cl (stereo not shown) [Example I-291]	90%	80%	90%	100%	80%	90%	90%	80%	90%	80%	80%	80%	80%	80%	80%	90%				
CCOC(=O)[C@@H](C)Oc1nn(-c2ccccn2)c(-c2cncc(F)c2)c1Cl [Example I-184]	90%	90%	100%	100%	90%	100%	100%	90%	90%	90%	80%	90%	80%	90%	90%	90%	90%	80%	90%	80%
COC(=O)[C@H](C)COC(=O)COc1nn(-c2ccccn2)c(-c2cncc(F)c2)c1Cl [Example I-192]	90%	80%	80%	100%	80%	90%	100%	90%	90%	90%	80%	80%		80%	90%	100%	90%		80%	90%
COC(=O)[C@@H](C)Oc1nn(-c2nc(F)ccc2F)c(-c2cncc(F)c2)c1C1CC1 [Example I-171]	90%	90%	100%	100%	90%	100%	100%	80%	90%	90%	90%	90%	90%	90%	90%	90%	90%		80%	80%
COC(=O)CNC(=O)[C@@H](C)Oc1nn(-c2ccccn2)c(-c2cncc(F)c2)c1Br [Example I-187]	90%	80%	90%	100%	90%	100%	100%		80%	90%		80%	80%	90%	90%	90%	90%		90%	90%
CCOC(=O)[C@@H](C)Oc1nn(-c2nc(F)ccc2F)c(-c2cncc(F)c2)c1Cl [Example I-208]	90%	90%	90%	100%	80%	90%	100%	80%	90%	90%	80%	80%	80%	80%	90%	90%	90%	80%	80%	90%
O=C(O)COc1nn(-c2ncccc2F)c(-c2ccc(F)nc2)c1Br [Example I-08]	100%	90%	80%	100%	90%	90%	100%	80%	80%	80%	80%	90%	80%	80%	80%	100%		80%	90%	
CCOC(=O)COc1nn(-c2nc(F)ccc2F)c(-c2cncc(F)c2)c1Br [Example I-193]	90%	80%		90%	80%	100%	100%	90%	100%	90%		90%	80%	90%	80%	100%	90%	80%	80%	80%
COC(=O)CCOC(=O)[C@@H](C)Oc1nn(-c2ccccn2)c(-c2cncc(F)c2)c1Cl [Example I-196]	90%	80%	100%	100%	90%	90%	100%	90%	90%	90%	80%	80%	80%	80%	90%	90%	90%	80%	80%	90%
C[C@@H](Oc1nn(-c2ncccc2F)c(-c2ccc(F)nc2)c1I)C(=O)O [Example I-343]	100%	90%	90%	90%	80%	100%	100%		90%	90%	90%	90%	80%	80%	90%	100%		80%	80%	80%
